System: spontaneous contractions of the bladder
Test: Cystometry on anaesthetized naive rats (suppression of rhythmic spontaneous bladder contractions)
Assay type: in vivo, rat
Conditions: anaesthetized ventilated naive female rats; i.v., cumulative administration; mean of 3 experiments
Procedure: The cystometric investigation of naive female rats was carried out by the method of Kimura et al. (Kimura et al., 1996, Int. J. Urol. 3:218-227). The abdomen of anaesthetized ventilated rats is opened up and the ureter is tied off. The urine is drained from the kidneys. A catheter is inserted into the bladder and fixed. […] After stable starting values are reached, the test substance is administered i.v. in a cumulative manner. An influence on bladder function manifests itself via suppression of spontaneous contractions. The absence of contractions over a period of 10 min is the parameter for the suppression.
A suppression of spontaneous contractions in rats was measurable with all the substances tested.

Row | Structure (SMILES) | Lowest dose (mean of the lowest dose at which for the first time contractions are absent over a period of 10 min)
1 | COc1cccc(C2(O)CCCCC2CN(C)C)c1 (racemic) [Compound 23, rac-Tramadol, reference compound] | 5.3 (n = 3) mg/kg
2 | CN(C)C[C@H]1CCCC[C@]1(F)c1cccc(O)c1.Cl [Compound 18, (+)-(1R,2R)-3-(2-Dimethylaminomethyl-1-fluoro-cyclohexyl)-phenol, hydrochloride] | 0.2 (n = 3) mg/kg
3 | CN(C)C[C@H]1CCCC[C@@H]1c1cccc(O)c1.Cl [Compound 19, (+)-(1S,2S)-3-(2-Dimethylaminomethyl-cyclohexyl)-phenol, hydrochloride] | 0.1 (n = 3) mg/kg
4 | CN(C)C[C@@H]1CCCC[C@H]1c1cccc(O)c1.Cl [Compound 20, (−)-(1R,2R)-3-(2-Dimethylaminomethyl-cyclohexyl)-phenol, hydrochloride] | 0.5 (n = 3) mg/kg

From patent US6908944B2, “Use of 6-dimethylaminomethyl-1-phenyl-cyclohexane compounds for treatment of urinary incontinence” (Gruenenthal GmbH, priority 2000, dated 2005)
